Where no end group is shown, it is not given here.
Legend:
Assay type in all cases: in vivo, rat
Male Sprague-Dawley rats [1] = experiment: pQCT analysis of left and right femoral shafts at day 21, Groups K-R; conditions: for Left femoral shaft Total density mean / Left femoral shaft Trabecular density mean: ablated femur; for Left femoral shaft Total density mean / Left femoral shaft Trabecular density mean / Right femoral shaft Total density mean / Right femoral shaft Trabecular density mean: day 21, agent daily for 21 days, Groups K-R; for trabecular bone density of left femoral shaft, in words: bmx, day 21; for Right femoral shaft Total density mean / Right femoral shaft Trabecular density mean: non-ablated femur
Excerpt: (§1) FIG. 10 (a-b) presents high resolution radiograms of the left and right femurs, respectively, from an additional series of experiments on additional groups of male Sprague-Dawley rats (6 rats per group) aged 9 weeks which were sacrificed and tested after 21 days (3 weeks). The various groups were subjected to the following treatment modalities: Group K—control day 0; Group L—control day 21; Group M—bone marrow ablation (bmx) day 0; Group N—sham day 21; Group O— bmx+phosphate buffer saline (PBS) daily for 21 days; Group P—bmx+PTH[1-34]-NH2 daily for 21 days; Group Q—bmx+ parathyroid hormone related peptide (PTHRP) daily for 21 days; and Group R—bmx+rat α-calcitonin gene related peptide (CGRP) daily for 21 days;
FIG. 11 (a-d) are graphical representations of the results of Peripheral Quantitative Computerized Tomography (PQCT) analyses of, respectively, the left (ablated) and right (non-ablated) femoral shafts of the rats from Groups K-R (see description of FIG. 10). FIGS. 11(a) and 11(b) illustrate the trabecular bone density observed in, respectively the left and right femoral shafts at day 21; whereas, FIGS. 11(c) and 11(d) illustrate the total bone density of, respectively, the left and right femoral shafts at the same interval. The meanings of the abbreviations used in FIGS. 11(a-d) are identical to those described above with regard to FIG. 10. […] [+=p value<0.01 vs. sham; *=p value<0.01 vs. bmx+PTH; **=p value<0.01 vs. bmx+PTH; and #=p value<0.05 vs. PBS];
An additional series of experiments was thereafter carried out with additional groups of rats (K-R) in order to (1) measure the effect of additional bone anabolic agents, i.e., other than parathyroid hormone (PTH[1-34]-NH2) and calcitonin, as well as to compare the effect(s) achieved with such parathyroid hormone with those obtained with the use of alternate anabolic agents, including parathyroid hormone related peptide (PTHrP) and calcitonin gene related peptide (CGRP). As in the case of the analyses discussed above with regard to FIGS. 3-9, in the animals tested only the left femur underwent the bone marrow ablation (bmx) procedure, i.e., there was no ablation of the right femur. Thus, as noted above, any views of the right femur in the figures described below indicating bone marrow ablation (bmx) as a treatment modality should be taken to mean that such treatment was applied to the corresponding left femur. Further, as was additionally the case above, the samples described below with regard to FIGS. 10-13 were taken from the femur shafts, rather than the corresponding distal epiphysis as in the case of FIGS. 1 and 2. The figures discussed below depict the results of end-point studies wherein the measurements were taken only at the 21 day end-point.
FIG. 11 (a-d) graphically illustrates, by means of a bar graph, the improvements in trabecular bone density and, to some extent, total bone density, in the left femoral shaft of rats subjected to the treatment modalities described above with regard to FIG. 10 (a-b); that is, control day 0; bmx day 0; control day 21; sham day 21; bmx+PBS on day 21; bmx+PTH on day 21; bmx+PTHrP on day 21; and bmx+CGRP on day 21. Again, this is attributable that (only) the left femur was subjected to the bmx treatment, and thus was the only femur wherein the effects of such bmx treatment overlapped with that of the systemic treatment with the bone anabolic agent. […] In contrast to the values obtained for the left femur, no significant amount of bone was formed in the right femur, notwithstanding whether it is trabecular bone density or total bone density which is being measured. This lack of new bone is, furthermore, attributable to the fact that the right femur had not been subjected to the bone marrow ablation (bmx) treatment.

Male Sprague-Dawley rats [2] = experiment: Serum osteocalcin concentration at day 21, Groups K-R; conditions: for osteocalcin level, in words: bmx + agent daily for 21 days; for Osteocalcin mean: bmx rats, day 21, agent daily for 21 days, Groups K-R
Excerpt: FIG. 12 provides a measurement of the serum osteocalcin concentration (in ng/ml) in the blood of the rats in Groups K-R when the rats were sacrificed 21 days after commencement of treatment. The meaning of the abbreviated terms is the same as in FIGS. 10 and 11. […] [*=p value<0.05, while **=p value<0.01];
FIG. 12 is a bar graph which sets forth the osteocalcin levels determined, at the time of sacrifice, in the blood serum of the rats which were the subject of the analyses illustrated in FIGS. 10 and 11. As indicated above, it is well known that osteocalcin is a biochemical marker indicative of new bone growth.
The table additionally includes the standard deviations for the values obtained for each analysis, which standard deviations are also included in FIG. 12.

Male Sprague-Dawley rats [3] = experiment: High resolution radiograms of left and right femurs, Groups K-R; conditions: left femur with bmx, agent daily for 21 days
Excerpt: as §1
FIG. 10 (a-b) presents a set of high resolution radiograms of the entire left and right femurs of additional (to those described above) groups of rats, injected daily for a designated term with one or more of the following agents: phosphate buffer saline (PBS); parathyroid hormone (PTH[1-34]-NH2); parathyroid hormone related peptide (PTHrP); and calcitonin gene related peptide (CGRP). The rats chosen for test subjects were subjected to the following treatment modalities (as indicated in the lower left corner of each of the radiograms): control day 0; control day 21; bone marrow ablation (bmx) day 0; sham day 21; bmx followed by injection of PBS buffer daily for 21 days; bmx followed by injection of PTH daily for 21 days; bmx followed by injection of PTHrP daily for 21 days; and bmx followed by injection of CGRP daily for 21 days.
As shown by FIG. 10(a), the best results, i.e., the greatest bone density, was obtained in the left femur wherein the effect of the bone marrow ablation overlapped with that attributable to the administration of the various anabolic agents. As in the case of FIG. 3, the lighter, i.e, more radio-opaque, areas indicate the locations of the greatest additional bone growth.

Male Sprague-Dawley rats [4] = experiment: MicroCT analysis of femoral shafts, Groups K-R; conditions: left femoral shaft with bmx, agent for 21 days
Excerpt: FIG. 13(a-b) illustrate the results of Micro Computerized Tomography (MicroCT) analysis of the left (ablated) and right (non-ablated) femoral shafts of the rats of Groups K-R. The abbreviations are the same as those used in FIGS. 10-12;
FIG. 13 (a-b) provides a comparison between Micro Computerized Tomography (MicroCT) analyses of bone samples taken from the left femoral shaft (FIG. 13a) and the right femoral shaft (FIG. 13b) of rats treated in the manner indicated in FIGS. 10-12. As in the other cases discussed above, the most significant amount of new bone growth is found in the shaft of the left femur, since this shaft was subjected to the bmx treatment. […] In contrast, the right femoral shaft sections show very little or no increase in bone growth at all.

[5] = test system: osteoporotic female Sprague-Dawley rats; experiment: Lumbar vertebral bone mineral density and bone formation rate in ovariectomized osteoporotic rats, without mechanical induction; conditions: OVX rats, 4 weeks subcutaneous treatment, no mechanical induction
Description: FIG. 15 is a bar graph comparing the Lumbar Vertebral Bone Mineral Density obtained in osteoporotic female Sprague-Dawley rats wherein the osteoporosis was induced via an ovariectomy. The rats were treated with (1) PTH[1-31]-NH2; (2) PTH[1-34]-NH2; and PTH[1-34]-OH; and
FIG. 16 is a bar graph comparing the Lumbar Vertebral Bone Formation Rate obtained in osteoporotic female Sprague-Dawley rats wherein the osteoporosis was induced via an ovariectomy. The rats were treated with (1) PTH[1-31]-NH2; (2) PTH[1-34]-NH2; and PTH[1-34]-OH.
A series of experiments was performed comparing (1) lumbar vertebral bone mineral density, and (2) lumbar vertebral bone formation rate achieved with PTH[1-31]-NH2 and PTH[1-34]-OH compared to the preferred PTH[1-34]-NH2 analog discussed above in the absence of the mechanical induction step of the invention. The study involved a four-week treatment of female Sprague-Dawley rats at 10 months of age, and 6 months post-ovariectomy (“OVX”), which induces osteoporosis, with one of the three above-noted parathyroid hormone truncates. The rats were randomized into the following groups: sham OVX, OVX+ vehicle, OVX+PTH [1-31]-NH2 or PTH [1-34]-NH2 (obtained from Unigene Laboratories, Inc.) at 2.5, 10 or 40 μg/kg/day subcutaneous, or PTH[1-34]-OH (obtained from Bachem) at 10 μg/kg/day subcutaneous. After 4 weeks of treatment, the right femur of each animal was analyzed by DEXA and bone histomorphometry. FIG. 15 is a bar graph providing a comparison of the lumbar vertebral bone mineral density achieved with PTH[1-31]-NH2, PTH[1-34]-NH2 and PTH[1-34]-OH. FIG. 16 is a bar graph comparing the lumbar vertebral formation rates achieved with these same truncates. […] Because of the similarity of anabolic action among the above-discussed parathyroid hormones, it is therefore reasonable to expect that all known PTH analogs will advantageously function in the desired manner in the method of the present invention.

| Molecule | Left femoral shaft Total density mean (Male Sprague-Dawley rats [1]) [mg/mL] | Left femoral shaft Trabecular density mean (Male Sprague-Dawley rats [1]) [mg/mL] | trabecular bone density of left femoral shaft, in words (Male Sprague-Dawley rats [1]) | Right femoral shaft Total density mean (Male Sprague-Dawley rats [1]) [mg/mL] | Right femoral shaft Trabecular density mean (Male Sprague-Dawley rats [1]) [mg/mL] | osteocalcin level, in words (Male Sprague-Dawley rats [2]) | Osteocalcin mean (Male Sprague-Dawley rats [2]) [ng/mL] | bone density on radiograms, in words (Male Sprague-Dawley rats [3]) | new bone growth in MicroCT, in words (Male Sprague-Dawley rats [4]) | bone anabolic activity (lumbar vertebral bone mineral density and bone formation rate) [5] |
| --- | --- | --- | --- | --- | --- | --- | --- | --- | --- | --- |
| rat α-calcitonin gene related peptide [CGRP] | 963.5 | 283.5 | significantly improved | 831.1 | 115.5 | no increase | 97 | satisfactory results | new bone growth, although lesser in scope | – |
| CC[C@H](C)[C@H](NC(=O)[C@H](CCC(=O)O)NC(=O)[C@H](CO)NC(=O)[C@@H](NC(=O)[C@@H](N)CO)C(C)C)C(=O)N[C@@H](CCC(N)=O)C(=O)N[C@@H](CC(C)C)C(=O)N[C@@H](CCSC)C(=O)N[C@@H](Cc1cnc[nH]1)C(=O)N[C@@H](CC(N)=O)C(=O)N[C@@H](CC(C)C)C(=O)NCC(=O)N[C@@H](CCCCN)C(=O)N[C@@H](Cc1cnc[nH]1)C(=O)N[C@@H](CC(C)C)C(=O)N[C@@H](CC(N)=O)C(=O)N[C@@H](CO)C(=O)N[C@@H](CCSC)C(=O)N[C@@H](CCC(=O)O)C(=O)N[C@@H](CCCN=C(N)N)C(=O)N[C@H](C(=O)N[C@@H](CCC(=O)O)C(=O)N[C@@H](Cc1c[nH]c2ccccc12)C(=O)N[C@@H](CC(C)C)C(=O)N[C@@H](CCCN=C(N)N)C(=O)N[C@@H](CCCCN)C(=O)N[C@@H](CCCCN)C(=O)N[C@@H](CC(C)C)C(=O)N[C@@H](CCC(N)=O)C(=O)N[C@@H](CC(=O)O)C(=O)N[C@H](C(=O)N[C@@H](Cc1cnc[nH]1)C(=O)N[C@@H](CC(N)=O)C(=O)N[C@@H](Cc1ccccc1)C(=O)O)C(C)C)C(C)C [PTH[1-34]-OH, reference compound] | – | – | – | – | – | – | – | – | – | substantially equivalent |
| PTH[1-31]-NH2 (SVSEIQLMHNLGKHLNSMERVEWLRKKLQDV-NH2; UniProt P01270 32-62, looked up, fragment) [amidated parathyroid hormone truncate obtained from Unigene Laboratories] | – | – | – | – | – | – | – | – | – | substantially equivalent |
| parathyroid hormone related peptide [PTHRP] | 1017.9 | 403.1 | significantly improved | 858.2 | 122.4 | Significant new bone growth | 124.2 | satisfactory results | significant degree of improvement | – |

From patent US7776826B2, “Method for fostering bone formation and preservation” (Unigene Laboratories, Inc., priority 2004, dated 2010)
